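Compound exposure: 48 hours, 5 concentrations, 96-well plates. Here, GI50 denotes the concentration required for 50% inhibition of growth.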 The source made the active and inactive calls. Rule as the data show it: active = GI50 up to about 1.1 µM and inactive = higher.
Columns and labels:
Test in all cases: NCI tumour cell line growth inhibition, 48 h
NCI-H522 = test system: NCI-H522
SNB-78 = test system: SNB-78
UACC-257 = test system: UACC-257
EKVX = test system: EKVX
COLO 205 = test system: COLO 205
SNB-75 = test system: SNB-75
NCI-H226 = test system: NCI-H226
SW-620 = test system: SW-620
OVCAR-4 = test system: OVCAR-4
OVCAR-5 = test system: OVCAR-5
U-251 = test system: U-251
HCC 2998 = test system: HCC 2998
HOP-92 = test system: HOP-92
HCT-15 = test system: HCT-15
786-0 = test system: 786-0
HL-60 = test system: HL-60
T47D = test system: T47D
MDA-MB-435 = test system: MDA-MB-435
BT-549 = test system: BT-549
DU-145 = test system: DU-145

SMILES | GI50 (NCI-H522) | GI50 (SNB-78) | GI50 (UACC-257) | GI50 (EKVX) | GI50 (COLO 205) | GI50 (SNB-75) | GI50 (NCI-H226) | GI50 (SW-620) | GI50 (OVCAR-4) | GI50 (OVCAR-5) | GI50 (U-251) | GI50 (HCC 2998) | GI50 (HOP-92) | GI50 (HCT-15) [µM] | GI50 (786-0) | GI50 (HL-60) | GI50 (T47D) | GI50 (MDA-MB-435) | GI50 (BT-549) | GI50 (DU-145)
CSC(SC)=C1Sc2cccc(Cl)c2S1 | 26.1 µM (inactive) | > 100 µM (inactive) | > 100 µM (inactive) | 35.4 µM (inactive) | 20.4 µM (inactive) | 65.6 µM (inactive) | > 100 µM (inactive) | 39 µM (inactive) | 68.4 µM (inactive) | 45.6 µM (inactive) | 65.2 µM (inactive) | 15.8 µM (inactive) | 15.8 µM (inactive) | 48.3 | 28.5 µM (inactive) | 18.3 µM (inactive) |  |  |  | 
Cc1cc(N(CCC#N)S(=O)(=O)c2ccccc2)ccc1/C=N/c1ccc(C(=O)O)cc1 | 5.51 µM (inactive) | 12.3 µM (inactive) | 16.9 µM (inactive) | 17.9 µM (inactive) | 6.41 µM (inactive) | 14 µM (inactive) | 21.8 µM (inactive) | 7.43 µM (inactive) | 5.62 µM (inactive) | 20.3 µM (inactive) | 21.3 µM (inactive) | 16.8 µM (inactive) | > 100 µM (inactive) | 7.53 | 5.45 µM (inactive) | 5.21 µM (inactive) | > 100 µM (inactive) | > 100 µM (inactive) | > 100 µM (inactive) | > 100 µM (inactive)
O=C1C=CC(=C(c2ccc(O)cc2)c2ccc(O)cc2)C=C1 [AURIN] | 10.1 µM (inactive) | 5.11 µM (inactive) | 9.68 µM (inactive) | 15.1 µM (inactive) | 17.7 µM (inactive) | 3.21 µM (inactive) | 17.4 µM (inactive) | 12.5 µM (inactive) | 14.4 µM (inactive) | 18.2 µM (inactive) | 5.82 µM (inactive) | 14.4 µM (inactive) | 2.07 µM (inactive) | 14.4 | 13.6 µM (inactive) | 2.86 µM (inactive) |  |  |  | 
COc1cc2c3c(c1OC)/C(=N/OS(=O)(=O)c1ccc(C)cc1)CC3N(S(=O)(=O)c1ccc(C)cc1)CC2 (configuration not stated) | > 100 µM (inactive) | 41.7 µM (inactive) | > 100 µM (inactive) | > 100 µM (inactive) | > 100 µM (inactive) | 70.5 µM (inactive) | > 100 µM (inactive) | > 100 µM (inactive) | > 100 µM (inactive) | > 100 µM (inactive) | > 100 µM (inactive) | > 100 µM (inactive) | > 100 µM (inactive) |  | > 100 µM (inactive) | > 100 µM (inactive) |  |  |  | 
C=C(C)c1nc(Oc2ccccc2)nc(Oc2ccccc2)n1 | 1.16 µM (inactive) | 5.4 µM (inactive) | 9.55 µM (inactive) | 13.6 µM (inactive) | 5.42 µM (inactive) | 9.75 µM (inactive) | 19.9 µM (inactive) | 3.82 µM (inactive) | 11.2 µM (inactive) | 16.6 µM (inactive) | 10.6 µM (inactive) | 3.99 µM (inactive) | 4.93 µM (inactive) | 2.81 | 4.58 µM (inactive) | 2.06 µM (inactive) | 5.36 µM (inactive) | 10.3 µM (inactive) | 3.32 µM (inactive) | 16.5 µM (inactive)
CCOC(=O)C1=C(NC)OC/C1=N\NC(=O)c1ccccc1O | 9.31 µM (inactive) | 96.6 µM (inactive) | 1.49 µM (inactive) | 44.6 µM (inactive) | > 100 µM (inactive) | 69.3 µM (inactive) | 13.3 µM (inactive) | 31.8 µM (inactive) | 16.3 µM (inactive) | 48.3 µM (inactive) | 19.3 µM (inactive) | 25.1 µM (inactive) | 26.1 µM (inactive) |  | 33.4 µM (inactive) | 19.3 µM (inactive) |  |  |  | 
CNC=O | > 10000 µM (inactive) | > 7830 µM (inactive) | > 10000 µM (inactive) | > 10000 µM (inactive) | > 10000 µM (inactive) | 8150 µM (inactive) | > 10000 µM (inactive) | > 10000 µM (inactive) | > 10000 µM (inactive) | > 10000 µM (inactive) | 9930 µM (inactive) | > 3980 µM (inactive) | > 9530 µM (inactive) | > 10000 | > 10000 µM (inactive) | > 10000 µM (inactive) | > 10000 µM (inactive) | > 10000 µM (inactive) | > 10000 µM (inactive) | > 10000 µM (inactive)
C=C(CN(C)C)C(=O)c1ccc(OC)cc1 | 0.267 µM (active) | 2.36 µM (inactive) | 5.31 µM (inactive) | 18.7 µM (inactive) | 0.326 µM (active) | 15.5 µM (inactive) | 6.76 µM (inactive) | 0.771 µM (active) | 5.26 µM (inactive) | 13.6 µM (inactive) | 10.3 µM (inactive) | 14.2 µM (inactive) | 1.32 µM (inactive) | 1.76 | 1.72 µM (inactive) | 0.198 µM (active) | 0.881 µM (active) | 10.5 µM (inactive) | 6.56 µM (inactive) | 4.97 µM (inactive)
